According to patent US6399590B2, “Phosphoglycolipid and methods for its use” (Corixa Corporation, priority 1998, dated 2002):

System: Adult mongrel dogs, left anterior descending coronary artery (LAD) occlusion/reperfusion
Test: Infarct size in the dog, 60 min LAD occlusion and 3 h reperfusion
Assay type: in vivo
Conditions: AG 30 mg/kg alone, 60 min before occlusion; mean ± SEM
Description: Adult mongrel dogs of either sex, weighing 19.0-30.0 kg were fasted overnight, anaesthetized with intravenous sodium barbital (200 mg/kg) and sodium pentobarbital (15 mg/kg), and ventilated with room air supplemented with 100% oxygen at an end expiratory pressure of 5-7 cm H2O to prevent atelectasis. Arterial blood pH PO2 and PCO2 were monitored at selected intervals by an automatic blood gas system and maintained within a normal physiological range (pH 7.35-7.45, PO2 10.6-16.0 kPa, PCO2 3,3-4.7 kPa) by adjusting the respiratory rate and oxygen flow and by an infusion of 1.5% sodium bicarbonate when necessary. Body temperature was maintained at 38±1° C. by using a heating pad.
A double pressure-transducer-tipped catheter was inserted into the aorta and left ventricle via the left carotid artery for measurements of aortic and left ventricular pressure. Left ventricular dP/dt was determined by electronic differentiation of the left ventricular pressure pulse.
A left thoracotomy was performed at the fifth intercostal space. The lung was retracted, the pericardium incised, and the heart suspended in a cradle. A 10-15 mm segment of the left anterior descending coronary artery (LAD) was dissected from surrounding tissue. […]
Regional myocardial blood flow was measured by the radioactive microsphere technique. […]

SMILES: N=C(N)NN [AG, aminoguanidine, reference compound]
- IS/AAR(%) (infarct size / area at risk): 22.4 ± 2.8%
